The conditions of data set [1]: in vivo; cited from earlier work.
A short description of data set [2]: In vivo pharmacokinetics studies, dMN + NLX-HCL gel with or without heating pod. Also on record: species or system albino Hartley guinea pigs. To be noted: for enhancement in plasma concentration achieved with heat (vs no heat): 1 dMN; for plasma concentration, 2 dMN vs 1 dMN: non-heated. An excerpt: In Vivo Pharmacokinetics Studies. Preliminary in vivo data were collected in male (n=3) and female (n=2) albino Hartley guinea pigs (a common small animal model for dermal drug studies). All study procedures were IACUC approved. A crossover study design was used, dMN with and without use of heat (described in Table 5). The dorsal hair was clipped (not shaved) a day prior to studies. Either one or two dMN arrays (for a total of 100 or 200 dMNs total) were applied to the dorsal skin of the animal using gentle thumb pressure, and the backing of the dMN was removed.
The heat reaction was initiated by removing the protective tape cover. This was the same approach and conditions as used for the in vitro studies. […] Blood samples were collected at 0, 5, 10, 15, 30, 60, 75, 90, and 120 min. Plasma was separated from the blood immediately after collection and stored at −80° C. until analysis. A thermocouple probe in contact with the skin during the in vivo studies was used to record the skin temperature at the same timepoints as blood sampling.
The mixture was vortexed for 60 sec and centrifuged at 10,000 rpm for 15 min. The supernatant ethyl acetate layer was pipetted off and placed in a 5 mL glass tube under dry nitrogen to evaporate the organic layer. The dried residues were reconstituted with 100 μL 0.1% formic acid and analyzed using LC/MS.
Data Analysis. […] It is understood that when discussed herein, 1 dMN refers to a condition with a single, 100 microneedle array and 2 dMN refers to a condition with two arrays. All conditions were compared with and without the heating pod. […] For all analyses, p<0.05 was considered statistically significant.

Where a name gives a salt, the structure may show the parent alone.

Regarding `C=CCN1CC[C@]23c4c5ccc(O)c4O[C@H]2C(=O)CC[C@@]3(O)[C@H]1C5` [NLX, naloxone], the NLX population clearance in data set [1] was 91 L/h.
For the molecule `C=CCN1CC[C@]23c4c5ccc(O)c4O[C@H]2C(=O)CC[C@@]3(O)[C@H]1C5` [NLX-HCL, naloxone hydrochloride], the “enhancement in plasma concentration achieved with heat (vs no heat)” value in data set [2] (5 min) is on record as 2.4; in data set [2] (15 min) it was 1.3; in data set [2] (30 min), 1.2; in data set [2] (60 min), 1.4. In addition, the “AUC with heat compared to the same conditions without heat” value in data set [2] (2 dMN, 0-5, 0-15, 0-30 and 0-60 min, p<0.05) is listed as “significantly higher”. For the same molecule, the “enhancement of plasma concentrations by applied heat” value in data set [2] (2 dMN, 5 min) was found to be 2.1 ×; in data set [2] (2 dMN, 15 min), 2.2 ×; in data set [2] (2 dMN, 30 min) it was 2.1 ×; in data set [2] (2 dMN, 60 min) it was 1.8 ×. In data set [2] (2 or 1 dMN arrays), the “normalized plasma concentrations, heated vs dMN without heat” value is reported as “not significantly higher”. The “normalized plasma concentrations, 1 vs 2 dMN” value in data set [2] (heated or not heated, at 5, 15, 30 and 60 min) is on record as “no statistically significant differences”. Moreover, in data set [2] (heated, all time ranges tested, p<0.05), the “AUC 2 dMN vs 1 dMN” value is “significantly higher”. The “plasma concentration, 2 dMN vs 1 dMN” value in data set [2] (5 min) is 2.1 ×; in data set [2] (15 min), 1.6 ×; in data set [2] (30 min), 2.0 ×; in data set [2] (60 min), 2.3 ×.

These data come from patent US20240390660A1, “APPARATUS, SYSTEMS AND METHODS FOR TRANSDERMAL DRUG DELIVERY, PERMEABILITY ENHANCEMENT AND AUGMENTATION” (University of Iowa Research Foundation, priority 2021, published 2024).
